This note sets out measurements from patent publication US12577232B2, “N-heterocycle substituted tryptamine derivatives and methods of using” (ENVERIC B[…] INC., priority 2024, dated 2026).

For data set [1], the system named is human model (NT2) neurons. Kind of data set: Neuroplastogenicity (neurite outgrowth) assay in NT2 neurons. It is filed as cell-based. As to conditions: 1 or 10 μM, 48 h, visual inspection vs vehicle (0.1% DMSO). The arrangement: key: a positive (+) designation indicating strong evidence of enhanced neurite outgrowth in drug-treated NT2 cells compared to vehicle-treated cells; a negative (−) designation indicating weak or no evidence of enhanced neurite outgrowth in drug-treated NT2 cells compared to vehicle-treated cells. The text has this: Classic psychedelics such as psilocybin and DMT show potential to treat anxiety and depression, and it has been theorized that such long-term improvements arise because these drugs rapidly and lastingly stimulate neuroplasticity (Calder and Hasler, 2023, Neuropsychopharmacol. 48:104-112). Thus, it was of interest to determine the potential of new compounds as neuroplastogens. Herein, we assess the capacity of various compounds to enhance neurite outgrowth in human model (NT2) neurons.
Human NT2/D1 precursor cells were purchased from the American Type Culture Collection (ATCC, Manassas, VA, USA). Neuronal differentiation was carried out as previously described (Roloff et al., 2015, PloS ONE 10:e0118536) with minor modifications. Firstly, NT2/D1 cells were seeded in T-25 suspension culture flasks (REF #690190, Greiner bio-one, Germany). Each flask contains a minimum of 5×10^6 cells in 10 ml of DMEM/F12 supplemented with 10% fetal bovine serum (FBS), 1% penicillin and streptomycin and 10 μM retinoic acid (RA) medium to start neuronal differentiation. The cells were cultured for 3 days in free floating medium. At the end of the incubation cells were trypsinized and collected by centrifugation, mechanically dispersed, and counted. Counted cells were seeded along Poly D-Lysine (PDL) coated cover slips (12 mm; diameter round, Fisher Scientific; GG-12-PDL) containing a minimum of 0.1×10^5 cells in culture medium without RA. The next day culture medium was replaced with RA medium containing 2% of FBS. These cells cultured for 5 days and two days later, RA medium was changed.
After cells had successfully attached and established along coverslips, the RA medium was replaced with new medium containing 2% FBS and one of the following: (1) test compound (1 or 10 μM), (2) RhoK (ROCK) inhibitor Y-27632 (1 μM) as a positive control (Dihydrochloride; Sigma-Aldrich) (Roloff et al., 2015, PloS ONE 10:e0118536); (3) DMT (1 or 10 μM) as a positive control (Calder and Hasler, 2023, Neuropsychopharmacol. 48:104-112), or (4) vehicle (0.1% DMSO) as a negative control. These cells were incubated for 48 hours under standard conditions (370C, 5% CO2). The cells cultured along coverslips were collected after 48 hours of treatment. The coverslips washed with calcium chloride and magnesium chloride-free phosphate buffered saline (PBS) pH 7.4 (Gibco, #70011-044) and fixed in paraformaldehyde (PFA) 4% in PBS (#J61899, thermoscientific) for 15 min at room temperature (RT) and washed three times with 0.01% of Triton-X100 in PBS (PBST) to remove remaining PFA and to permeabilize the cells. Non-specific binding sites were blocked with 5% of Bovine Serum Albumin (BSA) solution (#9048-46-8, Millipore) in PBST for 60 minutes at RT. Rabbit monoclonal antibody β-III-tubulin (1:5,000, ab52623, Abcam) was applied overnight (O/N) at 4° C. Next day cells are washed three times in PBST, neurons were incubated with secondary antibody Donkey anti-rabbit IgG(H+L) Alexa Fluor™ Plus488 (1:5000 #A32790, Invitrogen) for 1 hour at RT. These coverslips were mounted on Gluoromount-G™, with 4′6-diamidino-2′henylindoldihydrochloride (DAPI) (#E141818, Invitrogen). The immunofluorescence images were analyzed using an Olympus VS110 slide scanner microscope.
B-III-Tubulin immunofluorescence was quantified using ImageJ. Briefly, Corrected Total Cell Fluorescence (CTCF) was acquired for at least ˜8-10 representative cells, where CTCF=Integrated Density−[Area of selected cell*Mean Fluorescence of background]. The CTCF values, referred to herein as ‘signal intensities’, were used to calculate overall means±SD for each treatment. One-Way ANOVA was used to compare treatments. Further, the mean of each treatment was compared with the mean of the control treatment (RA-differentiated cells treated with vehicle, 0.1% DMSO) using Dunnett's multiple comparison procedure. […]

The nature of data set [2]: Mouse plasma pharmacokinetics (PK) survey. The note with it: for AUC: male, C57BL6, mouse, read-out: AUCt0-tlast; for AUC / Cmax: ip; for Cmax: mouse. The format is in vivo. The method, then:
The purpose of the study was to gain insight into the pharmacokinetic (PK) behaviour of drugs in rodents. In some contexts, drug exposure and other PK parameters may be linked to the onset and/or degree of drug efficacy. Toward the goal of assessing PK behaviour, objectives included the collection of plasma from male mice at various times after (1) a single ‘low’ IP (intraperitoneal) dose (4 mg/kg), and (2) a single ‘high’ IP dose (10 mg/kg) of drug for pharmacokinetic monitoring. The experiment was designed to enable the determination of key parameters (e.g., Cmax, AUC) and was conducted in partnership with Inotiv (Boulder, Colorado; www.inotiv.com; Studies 3533-2302132 and 3533-2302538).
The study which took part in two phases (No. 3533-2302132 and 3533-2302538) was conducted by CRO Inotiv (Boulder, CO) and was performed in accordance with the test facility standard operation procedures (SOPs), the World Health Organization Quality Practices in Basic Biomedical Research guidelines, and in compliance with all US state and federal regulations, including USDA Animal Welfare Act 9 CFR Parts 1-3. Federal Register 39129, Jul. 22, 1993. All mice were male, belonging to stain C57BL6 (supplier Envigo). Upon arrival at the facility, the mice were 6 weeks old and were acclimated 7 days prior to injection with food and water ad libitum (3 animals/cage).
Three cohorts of mice were included (n=6 per cohort): (1) control (vehicle treatment), (2) 4 mg/kg compound (XV), and (3) 10 mg/kg compound (XV). On day 0 of the study, animals were randomized into cohorts based on body weight. Dosing (i.p. dose route) was performed on Day 1. Sampling of plasma was performed under anesthesia (inhaled isoflurane) on 3 of 6 animals per cohort at 6 time points (15 min 30 min, 1 h, 2 h, 4 h, and 6 h post-dose) followed by sacrifice at 8 h post-dose, ex-sanguination and final plasma collection. Whole blood (100 μL) was collected for plasma preparation using K2EDTA on ice (centrifugation within 5 min of collection), for a final plasma volume of 50 μL. Samples were stored at −80° C. until analysis.
Bioanalytical analysis of plasma was carried out using standard LC-MS/MS procedures. Prior to analysis of plasma, drug-specific quantification metrics (e.g., standard curve, LOD, Rt) were pre-established using authentic standard (>95%). Calculated concentrations (ng/mL) of analyte were used to determine PK parameters (Cmax, AUC) within the limits of detection (LOD).

Setting [3] is: plasma, 4 mg/kg, male C57BL6 mice, plasma, 4 mg/kg i.p.
Where [4] appears, read: plasma, 10 mg/kg, male C57BL6 mice, plasma, 10 mg/kg i.p.
Setting [5] is: male C57BL6 mice, plasma, 4 mg/kg i.p.
[6] abbreviates: male C57BL6 mice, plasma, 10 mg/kg i.p.

Molecules are shown by their SMILES. Where two headings read alike, the source gives them in different places.

For `CN(C)CCc1c[nH]c2cc(N3CCC3)ccc12` [Compound (XII)], the “Evidence of neurite outgrowth: Yes (+) or No (−)” value (“Evidence … (+) or No (−)” below) in data set [1] is recorded as “+”. Besides, the AUC was 39.7 ± 3 ng·h/mL in data set [2] (setting [3]) and 145 ± 5.3 ng·h/mL in data set [2] (setting [4]). Also, the figures for the Cmax in data set [2] (setting [5]) and in data set [2] (setting [6]) were 92.8 ± 17.2 ng/mL and 302 ± 33.7 ng/mL, respectively.

Turning to `CN(C)CCc1c[nH]c2cc(F)cc(N3CCOCC3)c12` [Compound (XV)], the “Evidence … (+) or No (−)” value in data set [1] is recorded as “+”. Also, the figures for the AUC in data set [2] (setting [3]) and in data set [2] (setting [4]) were 241 ± 71.6 ng·h/mL and 590 ± 30.9 ng·h/mL, respectively. The detectability in plasma entry in data set [2] (most mice, eight hours post-administration, i.p.) is reported as “still detectable”. Also, the results for the Cmax in data set [2] (setting [5]) and in data set [2] (setting [6]) were 101 ± 4.9 ng/mL and 459 ± 16.4 ng/mL, respectively.

`CC(C)N(C)CCc1c[nH]c2cc(N3CCOCC3)c(F)cc12` [Compound (XVII)]: the “Evidence … (+) or No (−)” value in data set [1] was “+”. Further, the AUCt0-tlast in data set [2] (male C57BL6 mice, plasma, 4 mg/kg i.p., 4 mg/kg) was determined as 27.2 ± 1.6 ng·h/mL. The AUC in data set [2] (setting [3]) turned out to be 24.2 ± 1.6 ng·h/mL; in data set [2] (setting [4]) it was 164 ± 7.2 ng·h/mL. In addition, the Cmax was determined as 62.1 ± 3.9 ng/mL in data set [2] (setting [5]) and 384 ± 14.2 ng/mL in data set [2] (setting [6]).

Take `CN(C)CCc1c[nH]c2cc(N3CCCC3)cc(F)c12` [Compound (XVIII)]: the “Evidence … (+) or No (−)” value in data set [1] is on record as “+”. Moreover, the AUC in data set [2] (setting [3]) was 19.6 ± 0.7 ng·h/mL; in data set [2] (setting [4]), 76.4 ± 11.5 ng·h/mL. Further, the Cmax came out at 8.8 ± 1.2 ng/mL in data set [2] (setting [5]) and 87.5 ± 8.5 ng/mL in data set [2] (setting [6]).

The term Cmax denotes the peak of the concentration-time curve.
